Test results reported in BindingDB's records for patent US20250127800 (Signet Therapeutics, 2025).

What follows are molecules tested against Focal adhesion kinase 1 (Homo sapiens, UniProt Q05397) (assay: In Vitro Enzymatic Inhibitory Activity Assay).
Chain of Focal adhesion kinase 1 (Q05397 whole entry): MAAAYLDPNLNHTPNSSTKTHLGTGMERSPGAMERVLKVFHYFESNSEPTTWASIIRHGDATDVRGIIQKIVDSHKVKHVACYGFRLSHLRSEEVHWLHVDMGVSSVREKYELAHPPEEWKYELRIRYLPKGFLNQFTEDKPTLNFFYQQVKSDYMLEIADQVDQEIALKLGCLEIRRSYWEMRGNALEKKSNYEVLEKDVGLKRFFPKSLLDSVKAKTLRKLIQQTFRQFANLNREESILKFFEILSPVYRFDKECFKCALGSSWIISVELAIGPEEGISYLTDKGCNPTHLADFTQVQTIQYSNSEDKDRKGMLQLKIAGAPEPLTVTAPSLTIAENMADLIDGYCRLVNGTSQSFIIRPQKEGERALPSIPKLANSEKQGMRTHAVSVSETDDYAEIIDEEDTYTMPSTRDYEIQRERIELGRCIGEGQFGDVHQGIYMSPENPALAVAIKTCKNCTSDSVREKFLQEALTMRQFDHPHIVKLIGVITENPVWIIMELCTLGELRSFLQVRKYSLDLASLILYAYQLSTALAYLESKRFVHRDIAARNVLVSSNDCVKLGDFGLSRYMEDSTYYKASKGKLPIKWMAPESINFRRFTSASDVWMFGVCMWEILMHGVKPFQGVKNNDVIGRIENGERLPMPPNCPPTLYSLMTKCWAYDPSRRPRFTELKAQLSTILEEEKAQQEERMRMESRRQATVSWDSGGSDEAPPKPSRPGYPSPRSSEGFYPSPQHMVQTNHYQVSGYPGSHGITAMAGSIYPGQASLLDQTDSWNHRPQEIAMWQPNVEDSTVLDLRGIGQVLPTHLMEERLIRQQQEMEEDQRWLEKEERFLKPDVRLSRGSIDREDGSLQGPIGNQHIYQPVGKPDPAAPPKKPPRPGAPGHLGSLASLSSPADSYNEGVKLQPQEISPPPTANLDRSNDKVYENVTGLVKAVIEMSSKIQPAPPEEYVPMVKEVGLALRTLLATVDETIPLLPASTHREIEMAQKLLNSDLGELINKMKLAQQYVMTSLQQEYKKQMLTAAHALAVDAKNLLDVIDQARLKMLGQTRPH
C=CC(=O)N1CCC(NC(=O)c2ccc(Nc3ncc(C(F)(F)F)c(NCc4nccnc4N(C)S(C)(=O)=O)n3)c(OC)c2)C1 (stereo unspecified) [US20250127800, Example 2] showed an IC50 of 1.18 nM. In the case of C=CC(=O)N1CCCC(NC(=O)c2ccc(Nc3ncc(C(F)(F)F)c(NCc4nccnc4N(C)S(C)(=O)=O)n3)c(OC)c2)C1 (stereo unspecified) [US20250127800, Example 3], the IC50 is reported as 1.59 nM. With C=CC(=O)NC1CCC(CNC(=O)c2ccc(Nc3ncc(C(F)(F)F)c(NCc4nccnc4N(C)S(C)(=O)=O)n3)c(OC)c2)CC1 (stereo unspecified) [US20250127800, Example 5] the IC50 was 0.9 nM. C=CC(=O)N1CCCC(c2cccc(NCc3ccc(Nc4ncc(C(F)(F)F)c(Nc5ccccc5C(=O)NC)n4)c(OC)c3)c2)C1 (stereo unspecified) [US20250127800, Example 12] gave an IC50 of 3.41 nM. With C=CC(=O)N1CCCC(c2cccc(NCc3ccc(Nc4ncc(Cl)c(Nc5ccccc5C(=O)NC)n4)cc3)c2)C1 (stereo unspecified) [US20250127800, Example 15] the IC50 was 7.84 nM. Molecule C=C(C)C(=O)N1CCCC(c2cccc(NCc3ccc(Nc4ncc(C(F)(F)F)c(Nc5ccccc5C(=O)NC)n4)cc3)c2)C1 (stereo unspecified) [US20250127800, Example 24] has an IC50 of 2.93 nM.
